Like-named read-outs stand apart in the source and are kept apart here.
Columns and labels:
[1] = parameters: species or system mice; settings: mouse, in vivo
Description: Hematologic and Phenotypic Analysis. Mice were injected intraperitoneally with AraC using the treatment regimen described below. Peripheral blood was collected by retro-orbital puncture into EDTA-coated capillary tubes on days 1, 2, 3, 4, 6, 8 and 11. Hematologic analysis was performed by IDEXX pre-clinical Research Services (West Sacramento, Calif.).
Prior to conducting the in vivo efficacy studies in the leukemia tumor models, the hematological toxicity of AraC was determined. The animals received three i.p. injections of 100 mg/kg AraC (volume of injection: 200 μl) in 10 hour-increments. This treatment regimen is equal to a total dose of 900 mg/m^2 and is within the total dose range of 700 to 1400 mg/m^2 used clinically in human patients. Neutropenia and lymphopenia are known to be the primary dose-limiting toxicity observed in patients, so AraC treated mice were monitored for absolute neutrophil and lymphocyte counts. The results are shown in FIG. 2A and FIG. 2B, respectively. After the three AraC administrations, peripheral blood was collected by retro-orbital puncture into EDTA-coated capillary tubes on days 1, 2, 3, 4, 6, 8 and 11 and analyzed for neutropenia. The absolute neutrophil count in the animals dropped to 45 neutrophils/μl, by day 4, rebounded to control level at 600 neutrophils/μl, by day 6 and remained at a steady level of around 600 neutrophils/μl, thereafter (FIG. 2A), which is similar to untreated control animals.

C1498-luc tumor cells = assay: C1498-luc acute myeloid leukemia tumor model, survival and tumor burden; format: in vivo, C57BL/6 mice
Description: To assess the in vivo progression of systemic disease, 2.5×10^4 of C1498-luc cells were injected intravenously via tail vein into C57BL/6 mice, their syngeneic host, and the mice were examined every few days for the presence of luminescent signal via live imaging (FIG. 1A). […] A total photon count of 5×10^8 from an individual tumor bearing animal was used as the end point of life expectancy.
The efficacy of the combination of cytosine arabinoside (AraC) and GM-CSF secreting cells was evaluated by carrying out animal studies in the syngeneic C1498-luc tumor model. In this model, following challenge with C1498-luc tumor cells as described above, the mice were randomized into control and individual treatment groups, as detailed in the examples. For anti-tumor memory assessment, animals which had previously received AraC in combination with GM-CSF-secreting cells were rechallenged with a lethal dose of C1498-luc cells approximately 100 days after receiving the combination therapy. A typical study in the C1498-luc tumor model makes use of at least 6 and generally 10-15 mice per group in order to obtain statistically significant results. Statistical significance is evaluated using the Student's t-test.
Tumor Model. Female C57Bl/6 mice were challenged with C1498-luc cells via intra-tail-vein injections with 2.5×10^4 inocula. The mice were prepared for in vivo bioluminescence imaging 5 to 10 minutes post injection to confirm the initial trafficking of the tumor cells from tail vein to the lungs. Briefly, the mice were injected i.p. with 1.5 mg/g luciferin substrate (Xenogen Corp., Alameda, Calif.). Fifteen minutes later, the mice were anesthetized for in vivo bioluminescence imaging analysis. […] The animals were monitored by in vivo imaging every 5 to 7 days throughout the study to monitor the systemic progression of the tumor. Individual animals were euthanized when in vivo total photon counts exceeded 5×10^8 and/or when determined to be clinically paralyzed.
In Vivo Treatment. […]

[2] = test system: Acute myeloid leukemias (AMLs); settings: cited from earlier work; for complete remissions: remission induction

## Nc1ccn([C@@H]2O[C@H](CO)[C@@H](O)[C@@H]2O)c(=O)n1 [AraC, 1-β-D-arabinofuranosylcytosine]
[1]
  absolute neutrophil count: 600 neutrophils/μl
  drop of lymphocyte counts: greater than 40%
[1]; ip, 100 mg/kg
  absolute neutrophil count: 45 neutrophils/μl
  recovery of lymphocyte counts: rebounded by day 6
C1498-luc tumor cells; C1498-luc tumor bearing mice
  mice surviving for longer than 150 days post-challenge: 30%
C1498-luc tumor cells; monotherapy
  Number of tumor free animals 150 days post challenge: 0/10
C1498-luc tumor cells; monotherapy, AraC 3 i.p. injections of 100 mg/kg one day post challenge, or 1×10^6 irradiated C1498.GM s.c. day 7
  Median Survival Time (MST): 61 days
[2]; patients
  dose-limiting toxicities: severe neutropenia and lymphopenia
[2]; patients older than 60
  complete remissions: −50%
[2]; younger adults
  complete remissions: ~75%

From patent publication US20080267935A1, “AraC in combination with a cytokine-secreting cell and methods of use thereof” (Cell Genesys, Inc., priority 2007, published 2008)
